From US5216001A, “Indole derivatives” (H. Lunbeck A/S, priority 1990, dated 1993)

Assays:
α1 adrenoceptors = experiment: inhibition of 3H-prazosin binding to α1 adrenoceptors in rat brain in vitro; conditions: 3H-prazosin 0.25 nM, rat brain membranes, read-out: Binding IC50, 3H Praz.
dopamine D-2 receptors = molecular target: T1, dopamine D-2 receptors (Rattus norvegicus, UniProt P61169); experiment: inhibition of 3H-spiperone binding to dopamine D-2 receptors in rat corpus striatum in vitro; conditions: 3H-spiperone 0.5 nM, rat corpus striatum membranes, in vitro; read-out: Binding IC50, 3H Spi.
T1 construct: striatal tissue is dissected and weighed; from tissue; host or cells: corpus striatum membranes of male Wistar rats
T1 sequence (P61169 whole entry): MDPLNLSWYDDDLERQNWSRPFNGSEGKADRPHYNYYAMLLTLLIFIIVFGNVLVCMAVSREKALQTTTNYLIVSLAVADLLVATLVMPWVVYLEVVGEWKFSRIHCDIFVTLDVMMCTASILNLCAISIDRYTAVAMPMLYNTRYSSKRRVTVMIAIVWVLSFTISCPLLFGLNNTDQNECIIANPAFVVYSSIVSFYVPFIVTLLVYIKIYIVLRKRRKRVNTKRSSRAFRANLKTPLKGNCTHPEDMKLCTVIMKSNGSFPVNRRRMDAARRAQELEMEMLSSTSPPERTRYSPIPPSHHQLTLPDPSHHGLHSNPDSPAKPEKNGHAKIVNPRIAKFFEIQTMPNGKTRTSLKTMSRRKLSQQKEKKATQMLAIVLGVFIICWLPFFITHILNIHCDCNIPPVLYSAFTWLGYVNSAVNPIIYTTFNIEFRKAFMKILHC
Summary of the method: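 Rat striatal membranes from male Wistar rats in 50 mM K-phosphate pH 7.4 incubated 10 min at 37 °C with 0.5 nM ³H-spiperone and five drug concentrations over 3 decades. Bound radioactivity collected by filtration and counted by scintillation; nonspecific binding defined with 10 μM 6,7-ADTN.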

5-HT2 = molecular target: T2, 5-HT2 (Rattus norvegicus, UniProt P14842); experiment: quipazine inhibition (quipazine-induced head twitches in rats); format: in vivo; conditions: sc, 24 h, read-out: Quipazine inhibition ED50, 24h (sc)
T2 construct: Four rats, male Wistar (Mol:Wist) SPF rats weighing 170-240 g; from tissue; host or cells: living male Wistar (Mol:Wist) SPF rats (in vivo, endogenous receptor)
T2 sequence (P14842 whole entry): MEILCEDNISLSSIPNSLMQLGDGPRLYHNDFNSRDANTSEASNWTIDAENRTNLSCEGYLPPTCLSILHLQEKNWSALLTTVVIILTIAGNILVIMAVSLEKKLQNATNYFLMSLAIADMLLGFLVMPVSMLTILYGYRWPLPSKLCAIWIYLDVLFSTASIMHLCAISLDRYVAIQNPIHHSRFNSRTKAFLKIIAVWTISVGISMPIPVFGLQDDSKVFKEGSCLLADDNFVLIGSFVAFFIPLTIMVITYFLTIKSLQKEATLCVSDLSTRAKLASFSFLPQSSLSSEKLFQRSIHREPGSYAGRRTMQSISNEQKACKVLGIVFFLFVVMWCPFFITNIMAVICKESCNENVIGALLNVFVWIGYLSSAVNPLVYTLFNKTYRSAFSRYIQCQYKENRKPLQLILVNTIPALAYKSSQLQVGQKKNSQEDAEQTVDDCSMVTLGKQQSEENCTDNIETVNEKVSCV

Row | Compound | IC50 (α1 adrenoceptors) [nM] | IC50 (dopamine D-2 receptors) [nM] | ED50 (5-HT2) [µmol/kg]
1 | CC(C)N1CCN(CCN2CCC(c3cn(-c4ccc(F)cc4)c4cc(Cl)ccc34)CC2)C1=O [Compound 4a, 6-chloro-1-(4-fluorophenyl)-3-[1-[2-[3-(2-propyl)-2-imidazolidinon-1-yl]ethyl]-4-piperidyl]-1H-indole] | 70 | 130 | –
2 | Cc1ccc2c(C3CCN(CCN4CCNC4=O)CC3)cn(-c3ccc(F)cc3)c2c1 [Compound 4g, 1-(4-fluorophenyl)-3-[1-[2-(2-imidazolidinon-1-yl)ethyl]-4-piperidyl]-6-methyl-1H-indole] | 24 | 270 | –
3 | Cc1ccc2c(C3CCN(CCN4CCN(C(C)C)C4=O)CC3)cn(-c3ccc(F)cc3)c2c1 [Compound 5a, 1-(4-fluorophenyl)-6-methyl-3-[1-[2-[3-(2-propyl)-2-imidazolidinon-1-yl]ethyl]-4-piperidyl]-1H-indole] | 85 | 190 | –
4 | OCCN1CCN(c2cn(-c3ccc(F)cc3)c3ccc(C(F)(F)F)cc23)CC1 [Lu 21-152, 1-(4-fluorophenyl)-3-[4-(2-hydroxyethyl)-1-piperazinyl]-5-trifluoromethyl-1H-indole, reference compound] | 7.6 | 2.6 | 0.15
